According to PubChem BioAssay AID248 (DTP/NCI, 2004):
Several values for one entry are separate records, joined by “and”; a condition that tells them apart may be missing. Identical values can stand only once. Inconclusive results and toxic doses are left out. Rule as the data show it: active = T/C of 150% or more; inactive = T/C below 125%.

Test system: L1210 leukemia ip in BDF1 mice, survival T/C
Assay: NCI In Vivo Anticancer Drug Screen. Data for tumor model L1210 Leukemia (intraperitoneal) in B6D2F1 (BDF1) mice
Settings: endpoint: mean survival time, higher = longer survival
How it was run: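 Survival endpoint. Drug-treated group vs vehicle group, expressed as T divided by C. Tumor passaged by transplantation.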

[1] = dose: 50.0 mg/kg/injection, schedule: Q01DX009 (ip), vehicle: saline with Tween-80
[2] = dose: 100.0 mg/kg/injection, schedule: Q01DX009 (ip), vehicle: saline with Tween-80
[3] = dose: 200.0 mg/kg/injection, schedule: Q01DX009 (ip), vehicle: saline with Tween-80
[4] = dose: 400.0 mg/kg/injection, schedule: Q01DX009 (ip), vehicle: saline with Tween-80
[5] = dose: 100.0 mg/kg/injection, schedule: Q01DX009 (ip), vehicle: Klucel (hydroxypropylcellulose) (HPC)
[6] = dose: 100.0 mg/kg/injection, schedule: Q04DX003 (ip), vehicle: Klucel (hydroxypropylcellulose) (HPC)
[7] = dose: 200.0 mg/kg/injection, schedule: Q01DX009 (ip), vehicle: Klucel (hydroxypropylcellulose) (HPC)
[8] = dose: 200.0 mg/kg/injection, schedule: Q04DX003 (ip), vehicle: Klucel (hydroxypropylcellulose) (HPC)
[9] = dose: 400.0 mg/kg/injection, schedule: Q01DX009 (ip), vehicle: Klucel (hydroxypropylcellulose) (HPC)
[10] = dose: 400.0 mg/kg/injection, schedule: Q04DX003 (ip), vehicle: Klucel (hydroxypropylcellulose) (HPC)
[11] = dose: 50.0 mg/kg/injection, schedule: Q01DX009 (ip), vehicle: Klucel (hydroxypropylcellulose) (HPC)
[12] = dose: 50.0 mg/kg/injection, schedule: Q04DX003 (ip), vehicle: Klucel (hydroxypropylcellulose) (HPC)
[13] = dose: 100.0 mg/kg/injection, schedule: Q01DX001 (ip), vehicle: saline
[14] = dose: 100.0 mg/kg/injection, schedule: Q01DX001 (ip), vehicle: Klucel (hydroxypropylcellulose) (HPC)
[15] = dose: 50.0 mg/kg/injection, schedule: Q01DX009 (ip), vehicle: saline
[16] = dose: 100.0 mg/kg/injection, schedule: Q01DX009 (ip), vehicle: saline
[17] = dose: 200.0 mg/kg/injection, schedule: Q04DX002 (ip), vehicle: Klucel (hydroxypropylcellulose) (HPC)
[18] = dose: 400.0 mg/kg/injection, schedule: Q04DX002 (ip), vehicle: Klucel (hydroxypropylcellulose) (HPC)
[19] = dose: 100.0 mg/kg/injection, schedule: Q04DX002 (ip), vehicle: saline
[20] = dose: 200.0 mg/kg/injection, schedule: Q04DX002 (ip), vehicle: saline

Measured: T/C

CCOC(=O)c1ccc(NCC#N)cc1
inactive: dose: 25.0 mg/kg/injection, schedule: Q01DX009 (ip), vehicle: saline with Tween-80 92 % of control | [1] 95 % of control | dose: 100.0 mg/kg/injection, schedule: Q01DX001 (ip), vehicle: saline with Tween-80 97 % of control | [2] 94 % of control | dose: 200.0 mg/kg/injection, schedule: Q01DX001 (ip), vehicle: saline with Tween-80 92 % of control | [3] 91 % of control | dose: 400.0 mg/kg/injection, schedule: Q01DX001 (ip), vehicle: saline with Tween-80 98 % of control | [4] 102 % of control

COC(=O)C1C2C=CC(C2)C1C(=O)O (centres undefined)
inactive: [5] 103 % of control | [2] 92 % of control | [6] 98 % of control | [7] 92 % of control | [3] 86 % of control | [8] 97 % of control | [9] 88 % of control | [4] 87 % of control | [10] 97 % of control

CCN(CC)CCCC(C)Nc1ccnc(/C=C/c2ccc(Br)cc2)c1 (centres undefined)
inactive: dose: 25.0 mg/kg/injection, schedule: Q01DX009 (ip), vehicle: Klucel (hydroxypropylcellulose) (HPC) 98 % of control | dose: 25.0 mg/kg/injection, schedule: Q04DX003 (ip), vehicle: Klucel (hydroxypropylcellulose) (HPC) 108 % of control | [11] 106 % of control | [12] 108 % of control and 88 % of control | [13] 93 % of control | [5] 97 % of control | [6] 97 % of control

N#CCc1nc2ccccc2[nH]1
inactive: [11] 97 % of control | [12] 101 % of control | [14] 102 % of control | [5] 98 % of control | [6] 98 % of control | [7] 88 % of control | [8] 101 % of control

O=C1C(c2ccccc2)=S=C2Sc3ccccc3N12
inactive: [5] 90 % of control

COc1cccc(C(=O)O)c1O
inactive: dose: 75.0 mg/kg/injection, schedule: Q01DX001 (ip), vehicle: acetone 101 % of control | dose: 150.0 mg/kg/injection, schedule: Q01DX001 (ip), vehicle: acetone 98 % of control

Cc1cccc(N=C2C(=O)NC(=O)NC2=O)c1
inactive: dose: 100.0 mg/kg/injection, schedule: Q01DX Z (ip), vehicle: methylcellulose (MC) 103 % of control | dose: 200.0 mg/kg/injection, schedule: Q01DX Z (ip), vehicle: methylcellulose (MC) 106 % of control

CC1(C)C(=O)C2C=CCC21 (centres undefined)
inactive: [1] 91 % of control | [2] 98 % of control | [3] 95 % of control

NCCOCCOCCN
inactive: [15] 108 % of control | [16] 87 % of control

COc1ccc(/C=C2\C=Nc3ccccc32)cc1
inactive: dose: 100.0 mg/kg/injection, schedule: Q04DX002 (ip), vehicle: Klucel (hydroxypropylcellulose) (HPC) 94 % of control | [17] 97 % of control | [18] 108 % of control

O=P(Oc1ccccc1)(N1CCCC1)N1CCCC1
inactive: [15] 100 % of control | [16] 91 % of control | [19] 100 % of control | dose: 200.0 mg/kg/injection, schedule: Q01DX009 (ip), vehicle: saline 98 % of control | [20] 95 % of control

O=C1OC(OC(=O)c2ccccc2)C(NC2CCCCC2)=C1Br (centres undefined)
inactive: [2] 98 % of control | [3] 96 % of control | [4] 98 % of control

O=C(O)C(=O)c1c(O)n(-c2ccccc2)c2ccccc12
inactive: dose: 25.0 mg/kg/injection, schedule: Q01DX001 (ip), vehicle: Klucel (hydroxypropylcellulose) (HPC) 95 % of control | dose: 50.0 mg/kg/injection, schedule: Q01DX001 (ip), vehicle: Klucel (hydroxypropylcellulose) (HPC) 95 % of control | [14] 93 % of control and 92 % of control

Cc1c2ccccc2c(C)c2c1cc(C(=O)O)c1ccccc12
inactive: [17] 115 % of control | [18] 101 % of control

O=C(NCCCl)Oc1cccc2c1CCCC2
inactive: [5] 87 % of control | [6] 103 % of control | [7] 97 % of control | [8] 100 % of control | [9] 100 % of control | [10] 100 % of control

CN(CC(C)(C)C=O)CC(C)(C)C=O
inactive: [19] 112 % of control | [20] 101 % of control | dose: 400.0 mg/kg/injection, schedule: Q04DX002 (ip), vehicle: saline 108 % of control

NC(=S)N/N=C(\c1ccc(Cl)cc1)C1CC1
inactive: dose: 3.0 mg/kg/injection, schedule: Q01DX Z (ip), vehicle: carboxymethylcellulose (CMC) 96 % of control | dose: 7.0 mg/kg/injection, schedule: Q01DX Z (ip), vehicle: carboxymethylcellulose (CMC) 96 % of control | dose: 7.0 mg/kg/injection, schedule: Q01DX Z (sc), vehicle: carboxymethylcellulose (CMC) 121 % of control | dose: 15.0 mg/kg/injection, schedule: Q01DX Z (ip), vehicle: carboxymethylcellulose (CMC) 97 % of control | dose: 15.0 mg/kg/injection, schedule: Q01DX Z (sc), vehicle: carboxymethylcellulose (CMC) 120 % of control

CN1CN(C)CN(C)C1
inactive: dose: 25.0 mg/kg/injection, schedule: Q01DX009 (ip), vehicle: saline 105 % of control | [15] 108 % of control | dose: 50.0 mg/kg/injection, schedule: Q04DX003 (ip), vehicle: saline 102 % of control | [13] 101 % of control | [16] 110 % of control | dose: 100.0 mg/kg/injection, schedule: Q04DX003 (ip), vehicle: saline 102 % of control and 107 % of control | dose: 200.0 mg/kg/injection, schedule: Q01DX001 (ip), vehicle: saline 92 % of control | dose: 400.0 mg/kg/injection, schedule: Q01DX001 (ip), vehicle: saline 97 % of control

O=C(Cl)c1cccc2c([N+](=O)[O-])cccc12
inactive: dose: 22.0 mg/kg/injection, schedule: Q01DX001 (ip), vehicle: other 96 % of control and 100 % of control | dose: 33.0 mg/kg/injection, schedule: Q01DX001 (ip), vehicle: other 103 % of control and 105 % of control | dose: 75.0 mg/kg/injection, schedule: Q01DX001 (ip), vehicle: other 103 % of control and 107 % of control | dose: 100.0 mg/kg/injection, schedule: Q01DX001 (ip), vehicle: other 97 % of control | dose: 200.0 mg/kg/injection, schedule: Q01DX001 (ip), vehicle: other 101 % of control | dose: 400.0 mg/kg/injection, schedule: Q01DX001 (ip), vehicle: other 106 % of control

CN(C)C1(C)CCC2C3CCC4=CC(=O)CCC4(C)C3CCC21C (centres undefined)
inactive: dose: 50.0 mg/kg/injection, schedule: Q01DX001 (sc), vehicle: steriod suspending solution 98 % of control | dose: 100.0 mg/kg/injection, schedule: Q01DX001 (sc), vehicle: steriod suspending solution 98 % of control | dose: 200.0 mg/kg/injection, schedule: Q01DX001 (sc), vehicle: steriod suspending solution 95 % of control | dose: 400.0 mg/kg/injection, schedule: Q01DX001 (sc), vehicle: steriod suspending solution 98 % of control
